Data published in PubChem BioAssay AID248 (DTP/NCI, 2004).
Values joined by “and” are separate entries in the source; they are usually repeats but may differ in a detail not shown here. Equal values may be shown once. Toxic doses and inconclusive results are not listed. No stated cut-off is given here; in the data, active means T/C of 150% or more; inactive means T/C below 125%.

System: L1210 leukemia ip in BDF1 mice, survival T/C
Test: NCI In Vivo Anticancer Drug Screen. Data for tumor model L1210 Leukemia (intraperitoneal) in B6D2F1 (BDF1) mice
Conditions: endpoint: mean survival time, higher = longer survival
Procedure, shortened: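 Mice bearing the transplanted tumor received compound or vehicle. Survival of the treated group was divided by that of the vehicle-treated control group to give the ratio.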

[1] = dose: 50.0 mg/kg/injection, schedule: Q01DX009 (ip), vehicle: Klucel (hydroxypropylcellulose) (HPC)
[2] = dose: 100.0 mg/kg/injection, schedule: Q01DX009 (ip), vehicle: Klucel (hydroxypropylcellulose) (HPC)
[3] = dose: 200.0 mg/kg/injection, schedule: Q01DX009 (ip), vehicle: Klucel (hydroxypropylcellulose) (HPC)
[4] = dose: 50.0 mg/kg/injection, schedule: Q01DX009 (ip), vehicle: saline with Tween-80
[5] = dose: 25.0 mg/kg/injection, schedule: Q01DX009 (ip), vehicle: saline
[6] = dose: 50.0 mg/kg/injection, schedule: Q01DX009 (ip), vehicle: saline
[7] = dose: 50.0 mg/kg/injection, schedule: Q04DX003 (ip), vehicle: saline
[8] = dose: 100.0 mg/kg/injection, schedule: Q01DX009 (ip), vehicle: saline
[9] = dose: 100.0 mg/kg/injection, schedule: Q04DX003 (ip), vehicle: saline
[10] = dose: 200.0 mg/kg/injection, schedule: Q01DX009 (ip), vehicle: saline
[11] = dose: 200.0 mg/kg/injection, schedule: Q04DX003 (ip), vehicle: saline
[12] = dose: 400.0 mg/kg/injection, schedule: Q01DX009 (ip), vehicle: saline
[13] = dose: 400.0 mg/kg/injection, schedule: Q04DX003 (ip), vehicle: saline
[14] = dose: 100.0 mg/kg/injection, schedule: Q04DX002 (ip), vehicle: Klucel (hydroxypropylcellulose) (HPC)
[15] = dose: 200.0 mg/kg/injection, schedule: Q04DX002 (ip), vehicle: Klucel (hydroxypropylcellulose) (HPC)
[16] = dose: 100.0 mg/kg/injection, schedule: Q04DX003 (ip), vehicle: Klucel (hydroxypropylcellulose) (HPC)
[17] = dose: 200.0 mg/kg/injection, schedule: Q04DX003 (ip), vehicle: Klucel (hydroxypropylcellulose) (HPC)
[18] = dose: 400.0 mg/kg/injection, schedule: Q04DX003 (ip), vehicle: Klucel (hydroxypropylcellulose) (HPC)
[19] = dose: 100.0 mg/kg/injection, schedule: Q04DX002 (ip), vehicle: saline

Measured: T/C

OCC1(c2ccccc2)OC1c1ccccc1 (centres undefined)
inactive: [1] 95 % of control | dose: 75.0 mg/kg/injection, schedule: Q04DX003 (ip), vehicle: Klucel (hydroxypropylcellulose) (HPC) 102 % of control | [2] 96 % of control | dose: 150.0 mg/kg/injection, schedule: Q04DX003 (ip), vehicle: Klucel (hydroxypropylcellulose) (HPC) 102 % of control | [3] 96 % of control | dose: 300.0 mg/kg/injection, schedule: Q04DX003 (ip), vehicle: Klucel (hydroxypropylcellulose) (HPC) 107 % of control

O=C(NC/C=C/Br)Nc1cnc2ccccc2c1
inactive: dose: 12.5 mg/kg/injection, schedule: Q01DX009 (ip), vehicle: saline with Tween-80 96 % of control | dose: 25.0 mg/kg/injection, schedule: Q01DX009 (ip), vehicle: saline with Tween-80 101 % of control | [4] 96 % of control | dose: 100.0 mg/kg/injection, schedule: Q04DX003 (ip), vehicle: saline with Tween-80 89 % of control

CCC1(c2ccccc2)CN(C)C1=O (centres undefined)
inactive: [5] 103 % of control | dose: 25.0 mg/kg/injection, schedule: Q04DX003 (ip), vehicle: saline 92 % of control | [6] 106 % of control | [7] 97 % of control | [8] 105 % of control | [9] 97 % of control | [10] 102 % of control | [11] 95 % of control | [12] 100 % of control | [13] 92 % of control

O=C(O)CCc1c(O)cc(Br)c(O)c1Br
inactive: dose: 100.0 mg/kg/injection, schedule: Q01DX001 (ip), vehicle: Klucel (hydroxypropylcellulose) (HPC) 90 % of control | dose: 200.0 mg/kg/injection, schedule: Q01DX001 (ip), vehicle: Klucel (hydroxypropylcellulose) (HPC) 93 % of control | dose: 400.0 mg/kg/injection, schedule: Q01DX001 (ip), vehicle: Klucel (hydroxypropylcellulose) (HPC) 96 % of control

CNC(=O)N(C)C1C(OC)OC2COC(c3ccccc3)OC2C1O (centres undefined)
inactive: [5] 100 % of control | [6] 105 % of control | [8] 100 % of control | [10] 100 % of control

NC(CSS(=O)(=O)O)=NCc1cccnc1
inactive: [14] 89 % of control | [15] 105 % of control

O=C(NN(c1ccccc1)c1cccc2ccccc12)c1ccccc1
inactive: [1] 103 % of control | [2] 103 % of control | [16] 89 % of control | [3] 97 % of control | [17] 93 % of control | dose: 400.0 mg/kg/injection, schedule: Q01DX009 (ip), vehicle: Klucel (hydroxypropylcellulose) (HPC) 100 % of control | [18] 94 % of control

Clc1ccc(N2CCN(c3ccc(Cl)cc3)CC2)cc1
inactive: [16] 88 % of control | [17] 101 % of control | [18] 87 % of control

CC(C)(C)Nc1ccc(C#N)cc1
inactive: dose: 12.5 mg/kg/injection, schedule: Q04DX002 (ip), vehicle: Klucel (hydroxypropylcellulose) (HPC) 97 % of control | dose: 25.0 mg/kg/injection, schedule: Q04DX002 (ip), vehicle: Klucel (hydroxypropylcellulose) (HPC) 94 % of control | dose: 50.0 mg/kg/injection, schedule: Q04DX002 (ip), vehicle: Klucel (hydroxypropylcellulose) (HPC) 87 % of control

CCCCCCCCCCCCCCCCC(C(=O)OC)S(=O)(=O)O (centres undefined)
inactive: [19] 102 % of control | dose: 200.0 mg/kg/injection, schedule: Q04DX002 (ip), vehicle: saline 124 % of control | dose: 400.0 mg/kg/injection, schedule: Q04DX002 (ip), vehicle: saline 102 % of control

NCC1CCCO1 (centres undefined)
inactive: [5] 98 % of control | [6] 95 % of control | [8] 101 % of control

CN1CN(C)CN(C)C1
inactive: [5] 105 % of control | [6] 108 % of control | [7] 102 % of control | dose: 100.0 mg/kg/injection, schedule: Q01DX001 (ip), vehicle: saline 101 % of control | [8] 110 % of control | [9] 102 % of control and 107 % of control | dose: 200.0 mg/kg/injection, schedule: Q01DX001 (ip), vehicle: saline 92 % of control | dose: 400.0 mg/kg/injection, schedule: Q01DX001 (ip), vehicle: saline 97 % of control

O=C(O)/C=C\C(=O)NNC(=O)/C=C\C(=O)O
inactive: [4] 101 % of control | [6] 100 % of control | dose: 100.0 mg/kg/injection, schedule: Q01DX009 (ip), vehicle: saline with Tween-80 96 % of control | [8] 100 % of control | dose: 200.0 mg/kg/injection, schedule: Q01DX009 (ip), vehicle: saline with Tween-80 104 % of control | [10] 93 % of control

O=C1C=CC(=O)c2nc(-c3ccccn3)c(-c3ccccn3)nc21
inactive: dose: 1.56 mg/kg/injection, schedule: Q04DX003 (ip), vehicle: Klucel (hydroxypropylcellulose) (HPC) 92 % of control | dose: 3.12 mg/kg/injection, schedule: Q04DX003 (ip), vehicle: Klucel (hydroxypropylcellulose) (HPC) 93 % of control | dose: 6.25 mg/kg/injection, schedule: Q04DX003 (ip), vehicle: Klucel (hydroxypropylcellulose) (HPC) 90 % of control | dose: 18.0 mg/kg/injection, schedule: Q01DX009 (ip), vehicle: Klucel (hydroxypropylcellulose) (HPC) 101 % of control | dose: 28.0 mg/kg/injection, schedule: Q01DX009 (ip), vehicle: Klucel (hydroxypropylcellulose) (HPC) 100 % of control | dose: 40.0 mg/kg/injection, schedule: Q01DX009 (ip), vehicle: Klucel (hydroxypropylcellulose) (HPC) 93 % of control

CCC(/C=C\C(C)C1CCC2C3CC=C4CC(OS(=O)(=O)c5ccc(C)cc5)CCC4(C)C3CCC12C)C(C)C (centres undefined)
inactive: dose: 100.0 mg/kg/injection, schedule: Q01DX001 (ip), vehicle: saline with Tween-80 90 % of control | dose: 200.0 mg/kg/injection, schedule: Q01DX001 (ip), vehicle: saline with Tween-80 90 % of control | dose: 400.0 mg/kg/injection, schedule: Q01DX001 (ip), vehicle: saline with Tween-80 86 % of control

COc1ccc(CN(C(C)=O)c2cc(C)c([N+](=O)[O-])cc2OC)cc1OC
inactive: [8] 90 % of control | [9] 93 % of control | [10] 94 % of control | [11] 100 % of control | [12] 96 % of control | [13] 98 % of control

NC(=NCc1ccccc1)C(F)(F)C(F)(F)F
inactive: dose: 44.0 mg/kg/injection, schedule: Q01DX Z (ip), vehicle: other 103 % of control and 118 % of control | dose: 66.0 mg/kg/injection, schedule: Q01DX Z (ip), vehicle: other 100 % of control and 101 % of control | dose: 100.0 mg/kg/injection, schedule: Q01DX Z (ip), vehicle: other 103 % of control and 90 % of control | dose: 150.0 mg/kg/injection, schedule: Q01DX Z (ip), vehicle: other 92 % of control and 90 % of control

COc1cccc(/C=C2/COC/C(=C\c3cccc(OC)c3OC)C2=O)c1OC
inactive: [8] 91 % of control | [10] 97 % of control

COc1ccc(Oc2ccccc2)cc1-c1ccccc1
inactive: dose: 100.0 mg/kg/injection, schedule: Q01DX001 (ip), vehicle: carboxymethylcellulose (CMC) 93 % of control | dose: 200.0 mg/kg/injection, schedule: Q01DX001 (ip), vehicle: carboxymethylcellulose (CMC) 102 % of control | dose: 400.0 mg/kg/injection, schedule: Q01DX001 (ip), vehicle: carboxymethylcellulose (CMC) 96 % of control

NNC(=O)CNc1ccccc1Cl
inactive: [14] 112 % of control | [15] 108 % of control

O=C(Nc1cc(Cl)ccc1Cl)OCCCl
inactive: [14] 97 % of control | [15] 102 % of control | dose: 400.0 mg/kg/injection, schedule: Q04DX002 (ip), vehicle: Klucel (hydroxypropylcellulose) (HPC) 97 % of control

O=C(O)CNS(=O)(=O)CCN1C(=O)c2ccccc2C1=O
inactive: [16] 96 % of control | [17] 92 % of control | [18] 96 % of control

CC1(C)OC2OC(COC(=S)Sc3ccc([N+](=O)[O-])cc3[N+](=O)[O-])C3OC(C)(C)OC3C2O1 (centres undefined)
inactive: dose: 6.25 mg/kg/injection, schedule: Q04DX002 (ip), vehicle: saline 95 % of control | dose: 12.5 mg/kg/injection, schedule: Q04DX002 (ip), vehicle: saline 98 % of control | dose: 25.0 mg/kg/injection, schedule: Q04DX002 (ip), vehicle: saline 106 % of control and 91 % of control | dose: 50.0 mg/kg/injection, schedule: Q04DX002 (ip), vehicle: saline 120 % of control | [19] 100 % of control
